A short description of series [1]: Serum concentration by HPLC in healthy human research participants (phase-1 study). The format is in vivo. The settings on record: for concentration at 24 h: both sexes, human, serum, oral, 60 mg/day. As for the experimental part:
Dog serum concentrations of Compound-1, Compound-1F and Compound-4 were determined with serum isolated from the blood of German shepherd dogs (age: 8-9 months) taken at different time points (2 h, 4 h, 6 h, 8, 10 h, 24 h) after oral drug intake. The steady-state serum concentrations of Compound-1, Compound-1F and Compound-4 were determined in mice with blood isolated at the end of the study by cardiac puncture. Serum proteins were removed by acetonitrile precipitation, and compounds were extracted by chloroform before separation on an HPLC-C18 column (Poroshell 120 EC-C18, Agilent) with an HPLC system (Agilent 1100 Series) and detection at OD 280 nm, for Compound-1 and Compound-1F. Detection of Compound-4 was performed at OD 310 nm. The same extraction method was also used to determine Compound-1F in the serum of healthy human research participants. Dog hematology and biochemical parameters were determined by the Center of Applied Analytical and Veterinary Studies, Cairo, Egypt. ECG and blood pressure were measured by Dr. Mohamed Elsaed, Electrocardiography Unit, Faculty of Veterinary Medicine, Cairo University. The study was approved by the ethical committee of the Center of Applied and Veterinary Studies, Cairo, Egypt. Clinical laboratory parameters of human research participants were determined by the Rabaa El Adaweya Medical Central Hospital, Cairo, Egypt.
(§1) Study design: The study was a three-part phase-1, randomized, placebo-controlled study of Compound-1F. The primary end-point was safety and tolerability. Secondary objectives were plasma pharmacokinetics data (part-1, part-2, part-3) and peripheral blood mononuclear cell MPP1 status (part-3).
(§2) The first part (part-1) was a single ascending dose-effect study with three cohorts of 4 healthy research participants each, who received a single dose of 20 mg, 40 mg or 60 mg in subsequent cohorts. Three drug-treated and one placebo-treated subjects were randomized in each cohort (2 males, 2 females; age: 35-65 years). After completion of safety assessment, blood was drawn for analysis of pharmacokinetics data.
(§3) In the second part (part-2) of the study, the daily dose was increased every two days until the final dose of 60 mg/day was reached, i.e. the daily dose was 20 mg on day-1 and day-2, 40 mg on day-3 and day-4, and 60 mg on day-5 until day-14. Blood was drawn before study begin for analysis of laboratory parameters and on day-14 for analysis of laboratory parameters and determination of pharmacokinetics data, at the indicated time points after administration of the last dose of 60 mg. All study participants (n=10; 7 males, 3 females; Caucasians; age: 37-66 years; 8 participants received drug, and two received placebo) were healthy and had the possibility to withdraw from the study at any time. All study participants wanted to complete the study.
In the third part (part-3) of the study, a cohort of 8 healthy elderly voluntary research participants (7 males, 1 female; age 60-73 years; all Caucasians) received a daily oral dose of 60 mg of Compound-1F for 28 days (6 participants received drug, 2 placebo). In part-3 of the study, blood was drawn before study begin for analysis of clinical laboratory parameters and MPP1 status, and on day-28 for analysis of laboratory parameters and MPP1 status, and 24 h after the last drug intake for measurement of serum concentration of Compound-1F. […]

Series [2] can be described thus: Safety and tolerability in healthy human research participants (phase-1 study). It is filed as in vivo. As for the experimental part:
as §1, §2, §3
In the third part (part-3) of the study, a cohort of 8 healthy elderly voluntary research participants (7 males, 1 female; age 60-73 years; all Caucasians) received a daily oral dose of 60 mg of Compound-1F for 28 days (6 participants received drug, 2 placebo). In part-3 of the study, blood was drawn before study begin for analysis of clinical laboratory parameters and MPP1 status, and on day-28 for analysis of laboratory parameters and MPP1 status, and 24 h after the last drug intake for measurement of serum concentration of Compound-1F. All participants of part-3 had the possibility to withdraw from the study at any time but all study participants wanted to complete the study.
The study participants were under the medical supervision of the Rabaa El Adaweya Medical Central Hospital, Cairo, Egypt (Clinical study director: Dr. Raafat Mahmood Fawzy). […] One participant in the placebo group and 1 participant in the drug treatment group (part-2 of the study) reported softer stools beginning on day-3 after drug/placebo intake. This side effect ended after completion of the study, and was most likely due to the intake of mannitol, which was used as an additive for formulation of study drug and placebo. There were no other adverse effects in part-1, part-2 and part-3 of the study.

The mark [3] stands for this setting: healthy humans, 14 days of repeated once daily oral dosing.

Read-outs that look alike come from different tables or passages of the source.

Take `O=C(C1=C(O)C(c2ccc(F)cc2)N(c2ccc3c(c2)OCO3)C1=O)C1CC1` (centres unmarked) [Compound-1F, 1-(1,3-Benzodioxol-5-yl)-4-(cyclopropanecarbonyl)-2-(4-fluorophenyl)-3-hydroxy-2H-pyrrol-5-one]: the concentration at 24 h in series [1] (elderly research participants, 28 days once daily 60 mg, read-out: steady-state serum concentration at 24 h after the last drug intake) came out at 1540 ± 310 ng/mL. Besides, in series [1] (healthy humans, repeated dosing 60 mg/day, read-out: serum concentration at 24 h after intake of the last dose), the concentration at 24 h amounted to 1470 ± 330 ng/mL. Moreover, the “dose dependence of serum concentration” value in series [1] (healthy humans, oral Compound-1F 20, 40, 60 mg) was “dose-dependent increase”. Moreover, in series [1] (healthy humans, repeated dosing 60 mg/day, n=8), the “peak serum concentration at t=6 h” value worked out at 5.33 ± 0.76 µg/mL. Further, in series [1] (healthy humans, repeated dosing with 60 mg/day), the “time of peak serum concentration after drug intake” value was determined as 6 h. Moreover, in series [2] (all research participants, during and after the study (observation period 4 weeks)), the “clinical laboratory parameters and cardiovascular examination data (blood pressure, heart rate)” value is “within the normal range”. Moreover, the “drug-related adverse events (safety assessment)” value in series [2] (elderly participants, 28 days once daily 60 mg) is listed as “no drug-related adverse events”. The clinical laboratory findings result in series [2] (elderly participants, before and after 28 days of once daily 60 mg) is recorded as “within the normal range”. Moreover, in series [2] (setting [3]), the “percentage of neutrophils and lymphocytes” value is “within the normal range”; the “total number of white blood cells” value was “not altered”. In addition, in series [2] (healthy humans, once daily 60 mg, 14 days of study), the “hematologic parameters (Hb, HCT, MCV, MCHC, RBCs) before vs after treatment” value is given as “not significantly different”. The “treatment related adverse effects (safety assessment)” value in series [2] (healthy humans, oral Compound-1F, single ascending dose 20-60 mg) is on record as “no treatment related adverse effects”. Further, the “kidney (serum urea, creatinine) and liver (AST, ALT) function parameters” value in series [2] (healthy humans, repeated once daily 60 mg/d) is on record as “within the normal range”. In addition, the “participants in the drug treatment group reporting softer stools” value in series [2] (part-2 of the study, beginning on day-3, attributed to mannitol) worked out at 1 participant.

For the origin of these results see patent US20210015793A1, “COMPOUNDS FOR TREATING CNS- AND NEURODEGENERATIVE DISEASES” (ETH ZURICH, priority 2018, published 2021).
